Measurements: BindingDB's records for doi:10.1021/jm50001a017 (1985)

Tests used:
[1] = target: Beta-2 adrenergic receptor (Mus musculus) (UniProt P18762); assay: KD constant value was evaluated for the displacement of ICYP (iodocyanopindolol) binding in […] lymphoma cell
[2] = target: Beta-2 adrenergic receptor (Mus musculus) (UniProt P18762); assay: KD constant value was evaluated for the displacement of ICYP (iodocyanopindolol) binding

Beta-2 adrenergic receptor (Mus musculus), sequence (P18762 whole entry, looked up): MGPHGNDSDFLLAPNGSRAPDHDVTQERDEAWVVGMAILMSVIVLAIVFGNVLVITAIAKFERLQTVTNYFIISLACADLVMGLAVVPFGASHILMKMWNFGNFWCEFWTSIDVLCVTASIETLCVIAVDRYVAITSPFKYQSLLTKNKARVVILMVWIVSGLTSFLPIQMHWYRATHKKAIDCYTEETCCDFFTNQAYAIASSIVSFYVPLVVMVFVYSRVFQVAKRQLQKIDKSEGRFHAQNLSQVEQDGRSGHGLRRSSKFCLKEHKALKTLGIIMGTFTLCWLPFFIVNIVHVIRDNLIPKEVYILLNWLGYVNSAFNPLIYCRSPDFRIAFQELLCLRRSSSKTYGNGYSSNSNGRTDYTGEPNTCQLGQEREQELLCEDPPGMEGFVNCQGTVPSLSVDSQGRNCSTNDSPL

Kd [1] [nM]	Kd [2] [nM]	SMILES
470		Cc1ccc(NC(=O)NCCCCC(C)NCC(O)c2ccc(O)c(O)c2)cc1 (stereo not drawn)
	10000	CC(CCCCN)NCC(O)c1ccc(O)c(O)c1 (stereo not drawn)
	320	Cc1ccc(C(=O)NCCCCC(C)NCC(O)c2ccc(O)c(O)c2)cc1 (stereo not drawn)
